Measurements reported in patent US10543156B2, “Shaping keratin fibres using 2-oxazolidinone compounds” (The Procter & Gamble Company, priority 2015, dated 2020).

Test: Hair straightening efficacy on hair switches, expert grading
Conditions: after 5 wash cycles; for Straightening efficacy Mean grade: 20% active agent in crosslinking composition with 100 ppm 4,5-dibromofluorescein, 100 ppm Eosin Y, water buffered at pH 10, irons at 121° C. with UV light at 380 nm, 8 passes, score on 0-10 scale (0 curly, 10 very straight)
Protocol: The hair straightening efficacy is tested for the crosslinking compositions described herein. Switches of low lift naturally curly hair are employed. These are shampooed with a Pantene clarifying shampoo to ensure the hair is in a clean state with no residues that could affect the end result. The switches are then rinsed. Excess water is removed from the hair by wringing out the switches. The switches are treated with a crosslinking composition which is pre-prepared in a dark room. The crosslinking composition comprises: active agent as listed in TABLE 2; 100 ppm 4,5-dibromofluorescein; 100 ppm Eosin Y; QSP water buffered at pH 10. These ingredients are mixed on a spinner plate for 30 mins. The crosslinking composition is stored in an amber bottle or a bottle covered in electrical tape to ensure no light access to the crosslinking composition. 0.5 g of crosslinking composition per 1 g hair is employed. The crosslinking composition is left on the hair for 30 minutes. After this time, the hair is blow dried, brushed, and is then mechanically straightened with hybrid light and heat emitting straightening irons (at 250° F. [121° C.] and emitting UV light at 380 nm) with 8 passes.
The switches are then imaged. To simulate durability, the switches are then given one wash-and-dry cycle. One wash-and-dry cycle involves shampooing with a Hairtrition shampoo (Hairtrition Color Protect sulfate-free shampoo from Zotos), rinsing and then drying in a hot box. Once dry the switches are imaged again. The switches are then given 4 further wash-and-dry cycles. Once dry the switches are imaged again. An expert grader gives the images of the switches a score on a 0-10 scale. The scale is a standard scale set as curly hair having 4-5 nodes of curls is a score of 0 and very straight hair is a 10. Thus, the switches are compared to a normal state of hair.
Using an expert grader is reliable because the grader is trained on measuring/scaling the configuration of the hair from straight to curly in a consistent way. Numeric data obtained by this method is averaged, and statistical analysis is conducted using JMP statistical software available from SAS Institute at the 87% confidence level.

| Compound | Straightening efficacy Mean grade | Straightening efficacy compared with the control (in words) (statistical analysis at the 87% confidence level) |
| --- | --- | --- |
| O=C1NCCO1 [2-oxazolidinone] | 3.7 | – |
| O=C1OCCN1CCO [N-(hydroxyethyl)-2-oxazolidinone] | 4.3 | significantly better straightening efficacy than the control |
| CC(=O)N1CCOC1=O [N-acetyl-2-oxazolidinone] | 3.0 | – |
